Measurements: patent publication US20100267561A1, “HERBICIDAL PYRIDAZINONE DERIVATIVES” (priority 2007, published 2010)
Read-outs that look alike come from different tables or passages of the source.

How the values were obtained:
Format in all cases: in vivo
[1] = system: bermudagrass (Cynodon dactylon); experiment: Test B pre-/postemergence plant response; details: for pest or weed control at 31 g/ha: 31 g ai/ha; for pest or weed control at 62 g/ha: 62 g ai/ha, 100 complete control
Summary of the method: (§1)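 Seeds were sown and sprayed preemergence, while plants at 2 to 18 cm (1- to 4-leaf stage) got postemergence sprays. Compounds were formulated in a non-phytotoxic solvent mixture with surfactant. After 13 to 15 days in a greenhouse, injury was rated visually against untreated controls, 0 (no effect) to 100 (complete control).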

[2] = system: blackgrass (Alopecurus myosuroides); experiment: Test B pre-/postemergence plant response; details: for pest or weed control at 31 g/ha: 31 g ai/ha; for pest or weed control at 62 g/ha: 62 g ai/ha, 100 complete control
Summary of the method: as §1

[3] = system: corn (Zea mays); experiment: Test B pre-/postemergence plant response; details: for Corn plant response rating (crop injury, 0 = no effect, 100 = complete kill) at 31 g/ha: 31 g ai/ha; for Corn plant response rating (crop injury, 0 = no effect, 100 = complete kill) at 62 g/ha: 62 g ai/ha, 100 complete control
Summary of the method: as §1

[4] = system: eastern black (E.B.) nightshade (Solanum ptycanthum); experiment: Test B pre-/postemergence plant response; details: Preemergence
Summary of the method: as §1

[5] = system: giant foxtail (Setaria faberii); experiment: Test B pre-/postemergence plant response; details: for pest or weed control at 31 g/ha: 31 g ai/ha; for pest or weed control at 62 g/ha: 62 g ai/ha, 100 complete control
Summary of the method: as §1

[6] = system: lambsquarters (Chenopodium album); experiment: Test B pre-/postemergence plant response; details: for pest or weed control at 31 g/ha / pest or weed control at 62 g/ha: Chenopodium album, read-out: Plant response rating, Lambsquarters; for pest or weed control at 31 g/ha: 31 g ai/ha; for pest or weed control at 62 g/ha: 62 g ai/ha, 100 complete control
Summary of the method: as §1

[7] = system: morningglory (Ipomoea coccinea); experiment: Test B pre-/postemergence plant response; details: for pest or weed control at 31 g/ha / pest or weed control at 62 g/ha: Ipomoea, read-out: Plant response rating, Morningglory; for pest or weed control at 31 g/ha: 31 g ai/ha; for pest or weed control at 62 g/ha: 62 g ai/ha, 100 complete control
Summary of the method: as §1

[8] = system: velvetleaf (Abutilon theophrasti); experiment: Test B pre-/postemergence plant response; details: for pest or weed control at 31 g/ha / pest or weed control at 62 g/ha: Abutilon theophrasti, read-out: Plant response rating, Velvetleaf; for pest or weed control at 31 g/ha: 31 g ai/ha; for pest or weed control at 62 g/ha: 62 g ai/ha, 100 complete control
Summary of the method: as §1

[9] = system: wild oat (Avena fatua); experiment: Test B pre-/postemergence plant response; details: for pest or weed control at 31 g/ha / pest or weed control at 62 g/ha: Avena fatua, read-out: Plant response rating, Oat, Wild; for pest or weed control at 31 g/ha: 31 g ai/ha; for pest or weed control at 62 g/ha: 62 g ai/ha, 100 complete control
Summary of the method: as §1

[10] = system: yellow nutsedge (Cyperus esculentus); experiment: Test B pre-/postemergence plant response; details: for pest or weed control at 31 g/ha / pest or weed control at 62 g/ha: Cyperus, read-out: Plant response rating, Nutsedge, Yellow; for pest or weed control at 31 g/ha: 31 g ai/ha; for pest or weed control at 62 g/ha: 62 g ai/ha, 100 complete control
Summary of the method: as §1

[11] = system: canarygrass (Phalaris minor); experiment: Test B postemergence plant response; details: for Plant response rating, Canarygrass: Postemergence
Protocol: (§2) At the same time, plants selected from these crop and weed species and also winter barley (Hordeum vulgare), canarygrass (Phalaris minor), chickweed (Stellaria media) and windgrass (Apera spica-venti) were treated with postemergence applications of some of the test chemicals formulated in the same manner. Plants ranged in height from 2 to 18 cm (1- to 4-leaf stage) for postemergence treatments.
(§3) Plant species in the flooded paddy test consisted of rice (Oryza sativa), umbrella sedge (Cyperus difformis), ducksalad (Heteranthera limosa) and barnyardgrass (Echinochloa crus-galli) grown to the 2-leaf stage for testing. At time of treatment, test pots were flooded to 3 cm above the soil surface, treated by application of test compounds directly to the paddy water, and then maintained at that water depth for the duration of the test. Treated plants and controls were maintained in a greenhouse for 13 to 15 days, after which time all species were compared to controls and visually evaluated. Plant response ratings, summarized in Table B, are based on a scale of 0 to 100 where 0 is no effect and 100 is complete control. A dash (-) response means no test result.

[12] = system: chickweed (Stellaria media); experiment: Test B postemergence plant response; details: for Plant response rating, Chickweed: Postemergence
Protocol: as §2, §3

[13] = system: windgrass (Apera spica-venti); experiment: Test B postemergence plant response; details: for Windgrass plant response rating: postemergence, 0-100 scale; for Plant response rating, Windgrass: Postemergence
Protocol: as §2, §3

[14] = system: winter barley (Hordeum vulgare); experiment: Test B postemergence plant response; details: for Plant response rating, Barley: Postemergence, scale 0 to 100, 0 no effect, 100 complete control
Protocol: as §2, §3

[15] = 8 g ai/ha, postemergence, 0-100 scale
[16] = Preemergence, 8 g ai/ha, scale 0 to 100 (0 no effect, 100 complete control)
[17] = Preemergence, 16 g ai/ha, scale 0 to 100
[18] = 16 g ai/ha, postemergence, 0-100 scale
[19] = post-emergence, Postemergence, scale 0 to 100
[20] = post-emergence, Postemergence, scale 0 to 100, 0 no effect
[21] = pre-emergence, Preemergence, scale 0 to 100 (0 no effect, 100 complete control)
[22] = pre-emergence, Preemergence, 0 to 100 scale, 0 no effect
[23] = 62 g ai/ha, scale 0 to 100, 0 no effect, 100 complete control

## Cc1cc(-c2ccc(Br)cc2)nn1-c1c(O)cn[nH]c1=O [Compound 78, 4-[3-(4-bromophenyl)-5-methyl-1H-pyrazol-1-yl]-5-hydroxy-3(2H)-pyridazinone]
[1]; [15]
  Bermudagrass plant response rating: 80
[1]; Cynodon dactylon, post-emergence, Postemergence, 16 g ai/ha, scale 0 to 100, read-out: Plant response rating, Bermudagrass
  pest or weed control at 16 g/ha: 98%
[1]; Cynodon dactylon, post-emergence, Postemergence, scale 0 to 100, read-out: Plant response rating, Bermudagrass
  pest or weed control at 31 g/ha: 100%
[1]; Cynodon dactylon, post-emergence, Postemergence, scale 0 to 100, 0 no effect, read-out: Plant response rating, Bermudagrass
  pest or weed control at 62 g/ha: 100%
[1]; Cynodon dactylon, pre-emergence, Preemergence, scale 0 to 100 (0 no effect, 100 complete control), read-out: Plant response rating, Bermudagrass
  pest or weed control at 31 g/ha: 100%
[1]; Cynodon dactylon, pre-emergence, Preemergence, 0 to 100 scale, 0 no effect, read-out: Plant response rating, Bermudagrass
  pest or weed control at 62 g/ha: 100%
[1]; [16]
  Bermudagrass plant response rating: 85
[1]; Preemergence, 16 g ai/ha, scale 0 to 100 (0 no effect, 100 complete control)
  Bermudagrass plant response rating: 100
[2]; [15]
  Blackgrass plant response rating: 70
[2]; Alopecurus myosuroides, post-emergence, Postemergence, 16 g ai/ha, scale 0 to 100, read-out: Plant response rating, Blackgrass
  pest or weed control at 16 g/ha: 95%
[2]; Alopecurus myosuroides, post-emergence, Postemergence, scale 0 to 100, read-out: Plant response rating, Blackgrass
  pest or weed control at 31 g/ha: 100%
[2]; Alopecurus myosuroides, post-emergence, Postemergence, scale 0 to 100, 0 no effect, read-out: Plant response rating, Blackgrass
  pest or weed control at 62 g/ha: 100%
[2]; Alopecurus myosuroides, pre-emergence, Preemergence, scale 0 to 100 (0 no effect, 100 complete control), read-out: Plant response rating, Blackgrass
  pest or weed control at 31 g/ha: 100%
[2]; Alopecurus myosuroides, pre-emergence, Preemergence, 0 to 100 scale, 0 no effect, read-out: Plant response rating, Blackgrass
  pest or weed control at 62 g/ha: 100%
[2]; [16]
  Blackgrass plant response rating: 70
[2]; [17]
  Blackgrass plant response rating: 90
[3]; [15]
  Corn plant response rating: 40
[3]; [16]
  Corn plant response rating: 55
[3]; [17]
  Corn plant response rating: 85
[3]; Zea mays, post-emergence, Postemergence, 16 g ai/ha, scale 0 to 100
  Corn plant response rating (crop injury, 0 = no effect, 100 = complete kill) at 16 g/ha: 100%
[3]; Zea mays, post-emergence, Postemergence, scale 0 to 100
  Corn plant response rating (crop injury, 0 = no effect, 100 = complete kill) at 31 g/ha: 100%
[3]; Zea mays, post-emergence, Postemergence, scale 0 to 100, 0 no effect
  Corn plant response rating (crop injury, 0 = no effect, 100 = complete kill) at 62 g/ha: 100%
[3]; Zea mays, pre-emergence, Preemergence, scale 0 to 100 (0 no effect, 100 complete control)
  Corn plant response rating (crop injury, 0 = no effect, 100 = complete kill) at 31 g/ha: 100%
[3]; Zea mays, pre-emergence, Preemergence, 0 to 100 scale, 0 no effect
  Corn plant response rating (crop injury, 0 = no effect, 100 = complete kill) at 62 g/ha: 100%
[4]; 8 g ai/ha, scale 0 to 100 (0 no effect, 100 complete control)
  Nightshade, E. B. plant response rating: 0
[4]; 16 g ai/ha, scale 0 to 100
  Nightshade, E. B. plant response rating: 0
[4]; Solanum, pre-emergence, 31 g ai/ha, scale 0 to 100 (0 no effect, 100 complete control), read-out: Plant response rating, Nightshade, E. B.
  pest or weed control at 31 g/ha: 0%
[4]; Solanum, pre-emergence, 62 g ai/ha, 0 to 100 scale, 0 no effect, 100 complete control, read-out: Plant response rating, Nightshade, E. B.
  pest or weed control at 62 g/ha: 55%
[5]; [15]
  Foxtail, Giant plant response rating: 98
[5]; [16]
  Foxtail, Giant plant response rating: 98
[5]; [17]
  Foxtail, Giant plant response rating: 100
[5]; Setaria faberi, post-emergence, Postemergence, 16 g ai/ha, scale 0 to 100, read-out: Plant response rating, Foxtail, Giant
  pest or weed control at 16 g/ha: 100%
[5]; Setaria faberi, post-emergence, Postemergence, scale 0 to 100, read-out: Plant response rating, Foxtail, Giant
  pest or weed control at 31 g/ha: 100%
[5]; Setaria faberi, post-emergence, Postemergence, scale 0 to 100, 0 no effect, read-out: Plant response rating, Foxtail, Giant
  pest or weed control at 62 g/ha: 100%
[5]; Setaria faberi, pre-emergence, Preemergence, scale 0 to 100 (0 no effect, 100 complete control), read-out: Plant response rating, Foxtail, Giant
  pest or weed control at 31 g/ha: 100%
[5]; Setaria faberi, pre-emergence, Preemergence, 0 to 100 scale, 0 no effect, read-out: Plant response rating, Foxtail, Giant
  pest or weed control at 62 g/ha: 100%
[6]; [15]
  Lambsquarters plant response rating: 0
[6]; [18]
  Lambsquarters plant response rating: 0
[6]; [19]
  pest or weed control at 31 g/ha: 0%
[6]; [20]
  pest or weed control at 62 g/ha: 0%
[6]; [21]
  pest or weed control at 31 g/ha: 0%
[6]; [22]
  pest or weed control at 62 g/ha: 0%
[6]; [16]
  Lambsquarters plant response rating: 0
[6]; [17]
  Lambsquarters plant response rating: 0
[7]; [15]
  Morningglory plant response rating: 0
[7]; [18]
  Morningglory plant response rating: 0
[7]; [19]
  pest or weed control at 31 g/ha: 0%
[7]; [20]
  pest or weed control at 62 g/ha: 0%
[7]; [21]
  pest or weed control at 31 g/ha: 0%
[7]; [22]
  pest or weed control at 62 g/ha: 0%
[7]; [16]
  Morningglory plant response rating: 0
[7]; [17]
  Morningglory plant response rating: 0
[8]; [15]
  Velvetleaf plant response rating: 0
[8]; [18]
  Velvetleaf plant response rating: 0
[8]; [19]
  pest or weed control at 31 g/ha: 0%
[8]; [20]
  pest or weed control at 62 g/ha: 0%
[8]; [21]
  pest or weed control at 31 g/ha: 0%
[8]; [22]
  pest or weed control at 62 g/ha: 0%
[8]; [16]
  Velvetleaf plant response rating: 0
[8]; [17]
  Velvetleaf plant response rating: 0
[9]; [15]
  Oat, Wild plant response rating: 98
[9]; [18]
  Oat, Wild plant response rating: 100
[9]; [19]
  pest or weed control at 31 g/ha: 100%
[9]; [20]
  pest or weed control at 62 g/ha: 100%
[9]; [21]
  pest or weed control at 31 g/ha: 70%
[9]; [22]
  pest or weed control at 62 g/ha: 85%
[9]; [16]
  Oat, Wild plant response rating: 30
[9]; [17]
  Oat, Wild plant response rating: 40
[10]; [15]
  Nutsedge, Yellow plant response rating: 0
[10]; [18]
  Nutsedge, Yellow plant response rating: 0
[10]; [19]
  pest or weed control at 31 g/ha: 0%
[10]; [20]
  pest or weed control at 62 g/ha: 0%
[10]; [21]
  pest or weed control at 31 g/ha: 0%
[10]; [22]
  pest or weed control at 62 g/ha: 0%
[10]; [16]
  Nutsedge, Yellow plant response rating: 0
[10]; [17]
  Nutsedge, Yellow plant response rating: 0
[11]; [15]
  Canarygrass plant response rating: 80
[11]; 16 g ai/ha, scale 0 to 100
  Plant response rating, Canarygrass: 90
[11]; 31 g ai/ha, scale 0 to 100
  Plant response rating, Canarygrass: 100
[11]; [23]
  Plant response rating, Canarygrass: 100
[12]; [15]
  Chickweed plant response rating: 0
[12]; 16 g ai/ha, scale 0 to 100
  Plant response rating, Chickweed: 0
[12]; 31 g ai/ha, scale 0 to 100
  Plant response rating, Chickweed: 0
[12]; [23]
  Plant response rating, Chickweed: 0
[13]; 8 g ai/ha
  Windgrass plant response rating: 40
[13]; 16 g ai/ha
  Windgrass plant response rating: 50
[13]; 31 g ai/ha, scale 0 to 100
  Plant response rating, Windgrass: 60
[13]; [23]
  Plant response rating, Windgrass: 80
[14]; [15]
  Barley plant response rating: 45
[14]; 16 g ai/ha
  Plant response rating, Barley: 90
[14]; 31 g ai/ha
  Plant response rating, Barley: 95
[14]; 62 g ai/ha
  Plant response rating, Barley: 95
